Source: patent publication US11896583B2, “Tinostamustine for use in treating ovarian cancer” (EURO-CELTIQUE S.A., priority 2017, dated 2024)

System: tumour spheroids from primary ovarian cancer tissue
Assay: Ovarian cancer spheroid model, ATP assay (CellTiter-Glo) of cell viability / metabolic activity
Procedure: Fresh primary ovarian cancer samples were obtained after informed consent of the individual patient was given. Patients were recruited following clinical diagnosis, and prior to chemotherapy commencing.
Heterotypic tumour spheroids were prepared from the individual primary ovarian cancer tissue. The tumour samples were mechanically and enzymatically digested using an enzyme cocktail (Roche, Penzberg Germany), cell viability determined using the trypan-blue exclusion test, and spheroids seeded at a cell density of 50,000 using a modified liquid overlay method. After 48 h in cell culture under standard conditions, successful spheroid formation was documented photographically before starting treatment.
Each experiment was repeated six times, and both untreated (medium) control and two positive controls (carboplatin+paclitaxel and vorinostat) were used under the same culture conditions. Treatment efficacy, i.e. treatment-induced reduction of the cellular metabolic activity (cell viability) was analyzed using a standard ATP assay.
Once the feasibility study was completed, tumour spheroids consisting of 50,000 cells were prepared from the individual primary ovarian cancer tissue as described above. After 48 h, spheroid formation was documented photographically before starting treatment. […] Treatment efficacy was evaluated using a standard ATP assay, details of which are provided below.
ATP assay test from Promega: CellTiter-Glo®. The CellTiter-Glo® Luminescent Cell Viability Assay is a homogeneous method to determine the number of viable cells in culture based on quantitation of the ATP present, which signals the presence of metabolically active cells. […] The homogeneous assay procedure involves adding a single reagent (CellTiter-Glo® Reagent) directly to cells cultured in serum-supplemented medium.
The homogeneous “add-mix-measure” format results in cell lysis and generation of a luminescent signal proportional to the amount of ATP present.

Cn1c(CCCCCCC(=O)NO)nc2cc(N(CCCl)CCCl)ccc21 [EDO-S101, 7-(5-(bis(2-chloroethyl)amino)-1-methyl-1H-benzo[d]imidazol-2-yl)-N-hydroxyheptanamide]
reduction in cell viability to (FIG. 1, patient #5284, 5 μM, after 48 h): 50% | reduction in cell viability (compared to the untreated control) (FIG. 1, patient #5284, 7.5 μM): ~80% | reduction in cell viability (compared to the untreated control) (FIG. 1, patient #5284, 10 μM): ~80% | cell viability compared to control untreated spheroids (FIG. 1, patient #5284, 2.5-10 μM): A reduction in cell viability was observed | reduction in cell viability compared with carboplatin+paclitaxel (FIG. 1, patient #5284, 5, 7.5 and 10 μM, after 48 h): greater than that in spheroids treated with carboplatin+paclitaxel after 48 h | reduction in cell viability compared with carboplatin+paclitaxel (FIG. 1, patient #5284, 5, 7.5 and 10 μM, after 72 h): comparable after 72 h | reduction in cell viability compared with vorinostat (FIG. 1, patient #5284, 5, 7.5 and 10 μM, all time points): greater than that in spheroids treated with vorinostat at all time points | time dependence of cell viability (FIG. 1, patient #5284, higher concentrations): did not decrease in a time dependent manner | time dependence of cell viability (FIG. 1, patient #5284, lower concentrations, 48 h to 96 h): decreased in a time dependent manner | efficacy compared with positive controls (FIG. 2, patient #5285, feasibility study): better than both carboplatin+paclitaxel or vorinostat | reduction in cell viability, combination therapy (FIG. 4, n=8, EDO-S101 5 μM, carboplatin 110 μM, paclitaxel 1.79 μM, 72 h): median reduction in cell viability comparable to carboplatin+paclitaxel, but with enhanced average potency across the experimental group | effect of adding EDO-S101 to other treatments (FIG. 6, patient #5295, 72 h): further reduced metabolic activity when used in combination with carboplatin, paclitaxel and carboplatin+paclitaxel | efficacy compared with carboplatin (FIG. 6, patient #5295, 72 h): comparable to that of carboplatin | metabolic activity (ATP assay) (FIG. 6, patient #5295, 72 h): shows a reduction in metabolic activity compared to the negative control | effect of adding EDO-S101 to other treatments (FIG. 7, patient #5296, 72 h): enhanced efficacy when in combination with carboplatin, paclitaxel and carboplatin+paclitaxel | metabolic activity (ATP assay) (FIG. 7, patient #5296, 72 h): enhanced reduction in metabolic activity compared to vorinostat, carboplatin or paclitaxel | metabolic activity (ATP assay) (FIG. 8, patient #5310, 72 h, samples from ovary and omentum): effective in treating ovarian cancer from the omentum | metabolic activity (ATP assay) (FIG. 9, patient #5311, 72 h): comparable efficacy to that observed in spheroids treated with vorinostat | metabolic activity (ATP assay) (FIG. 10, patient #5329, 72 h): comparable or improved activity compared to vorinostat and carboplatin as monotherapies

CC(=O)O[C@H]1C(=O)[C@@]2(C)[C@H]([C@H](OC(=O)c3ccccc3)[C@]3(O)C[C@H](OC(=O)[C@H](O)[C@@H](NC(=O)c4ccccc4)c4ccccc4)C(C)=C1C3(C)C)[C@]1(OC(C)=O)CO[C@@H]1C[C@@H]2O [paclitaxel, reference compound]
metabolic activity (ATP assay) (FIG. 6, patient #5295, 72 h): negligible efficacy

O=C(CCCCCCC(=O)Nc1ccccc1)NO [vorinostat, reference compound]
metabolic activity (ATP assay) (FIG. 6, patient #5295, 72 h): negligible efficacy
